In general, melting point refers to the temperature of the solid-liquid transition.

`Nc1ncc(-c2cccc(Cl)c2Cl)nc1C(=O)Nc1cccnc1` [Example 12, 3-Amino-6-(2,3-dichlorophenyl)-N-pyridin-3-ylpyrazine-2-carboxamide] had a melting point of 239 to 241 °C.
Then `Nc1ncc(-c2ccc(F)c(Cl)c2)nc1C(=O)Nc1cccnc1` [Example 16, 3-Amino-6-(3-chloro-4-fluorophenyl)-N-pyridin-3-ylpyrazine-2-carboxamide], with 236 to 238.5 °C.
In turn, `Cc1cc(-c2cnc(N)c(C(=O)Nc3cccnc3)n2)ccc1F` [Example 17, 3-Amino-6-[4-fluoro-3-methylphenyl]-N-pyridin-3-ylpyrazine-2-carboxamide] came in with a melting point of 186 to 189 °C.
As to `Nc1ncc(-c2cccc(F)c2)nc1C(=O)Nc1cccnc1` [Example 19, 3-Amino-6-(3-fluorophenyl)-N-pyridin-3-ylpyrazine-2-carboxamide], the melting point was 234.5 to 238 °C.
Then `Nc1ncc(-c2cccs2)nc1C(=O)Nc1cccnc1` [Example 6, 3-Amino-6-(2-thienyl)-N-pyridin-3-ylpyrazine-2-carboxamide], with 178 to 189 °C; and `Nc1ncc(-c2ccc(F)c(F)c2)nc1C(=O)Nc1cccnc1` [Example 15, 3-Amino-6-(3,4-difluorophenyl)-N-pyridin-3-ylpyrazine-2-carboxamide], with 232 to 234 °C; and `Nc1ncc(-c2ccc(F)cc2F)nc1C(=O)Nc1cccnc1` [Example 14, 3-Amino-6-(2,4-difluorophenyl)-N-pyridin-3-ylpyrazine-2-carboxamide], with 232 to 234 °C.
The compound `Nc1ncc(-c2ccccc2F)nc1C(=O)Nc1cccnc1` [Example 20, 3-Amino-6-(2-fluorophenyl)-N-pyridin-3-ylpyrazine-2-carboxamide] registered a melting point of 221 to 225 °C.
With `Nc1ncc(-c2ccc(F)cc2)nc1C(=O)Nc1cccnc1` [Example 10, 3-Amino-6-(4-fluorophenyl)-N-pyridin-3-ylpyrazine-2-carboxamide], the melting point lay in the range of 193 to 197 °C.
For `Cc1ccc(-c2cnc(N)c(C(=O)Nc3cccnc3)n2)cc1C` [Example 18, 3-Amino-6-(3,4-dimethylphenyl)-N-pyridin-3-ylpyrazine-2-carboxamide], the melting point lay in the range of 178 to 182 °C.

Source of the values: patent US20040186113A1, “Heterocyclic amines for the treatment of conditions associated with gsk-3” (priority 2001, published 2004).
